# Data as given in US11337990B2, “Human milk oligosaccharides to promote growth of beneficial bacteria” (ABBOTT LABORATORIES, priority 2010, dated 2022).
# Entries after “also recorded” stand apart in the source; their conditions may differ.
# Key:
# Bifidobacterium spp. = experiment: qPCR of bacterial populations in in vitro fecal fermentation; type: cell-based; conditions: overall, 0-12 h fermentation; sodium salt
# HT-29 cells [1] = experiment: HT-29 cell proliferation, BrdU assay; type: cell-based, human; conditions: Example 48: LNnT or 2′FL 20, 200, 2000 mg/L; 6′SL 40, 400; 72 hours; sodium salt
# Protocol: In a first experiment, HT-29 cells, which model the immature epithelial cells of the small intestine, are incubated in a humidified atmosphere of 5% carbon dioxide at 37 C in the presence of LNnT at concentrations of 0 mg/L (“0”), 100 mg/L (“100”), 200 mg/L (“200”), and 400 mg/L (“400”) for either 48 hours or 72 hours. The culture medium utilized is Dulbecco's Modified Eagle Medium (Life Technologies, Foster City Calif.) supplemented with 10% fetal calf serum and 2 mM glutamine. The control consists of a combination of 91.5 mg lactose and 62.4 mg galactosamine (“LG”) per Liter of the Dulbecco's Modified Eagle Medium set forth above. The impact of the LNnT at various levels and the control on HT-29 cell proliferation is measured using a conventional BrdU assay, which measures the number of cells that have recently synthesized DNA.
# (§1) In a first experiment, HT-29 cells, which model the immature epithelial cells of the small intestine, are incubated in a humidified atmosphere of 5% carbon dioxide at 37° C. in the presence of LNnT or 2′FL at concentrations of 0 mg/L (“0”), 20 mg/L (“20”), 200 mg/L (“200”), and 2000 mg/L (“2000”) or in the presence of 6′SL at concentrations of 0 mg/mL (“0”), 40 mg/mL (“40”), 400 mg/mL (“400”), and 4000 mg/mL (“4000”) for 72 hours. The culture medium utilized is Dulbecco's Modified Eagle Medium (Life Technologies, Foster City Calif.) supplemented with 10% fetal calf serum and 2 mM glutamine. The controls (“energy”) consist of 91.5 mg lactose and 64.2 mg N-acetyllactosamine/L for LNnT; 133 mg lactose and 67 mg fucose/L for 2′FL; and 195 mg lactose and 205 mg/L sialic acid for 6′SL. The impact of the LNnT, 2′FL, and 6′SL at various levels and the controls on HT-29 cell proliferation is measured using a conventional BrdU assay, which measures the number of cells that have recently synthesized DNA. […] Additionally, the impact of LNnT, 2′FL, and 6′SL at various levels and the controls on the alkaline phosphatase activity per milligram of protein for HT-29 cells, which is an indicator of cell differentiation, is measured.
# B. infantis M-63 = experiment: Bacterial growth assay (OD600); type: cell-based, Bifidobacterium infantis; conditions: 1% carbohydrate in sMRS+cysteine
# Protocol: (§2) Coy Laboratory Products, Grass Lake, Mich.). Subsequently, the cultures are passed twice on a semi-synthetic MRS medium ([…] which is supplemented with 1% (w/v) filter-sterilized glucose as the sole carbohydrate source. […] For bifidobacteria strains, the same procedure is followed except all media are supplemented with 0.5 g/l L-cysteine/HCl. [table] After the 2nd pass in sMRS+glucose+cysteine, the cultures are washed once with 10 mL of sterile sMRS+cysteine (no carbohydrate), resuspended in 10 ml of sterile sMRS+cysteine (no carbohydrate) and then used as a 1% inoculum. The carbohydrates are sterilized with a 0.22 micron filter and used at a 1% final concentration. Cell growth is performed in 250 μL of sMRS+cysteine covered with 50 μL of mineral oil in a Bioscreen 100-well Honeycomb plate. […] The plate reader is operated in discontinuous mode, with absorbance readings performed in 30-minute intervals, and preceded by 30-second shaking intervals at maximum speed. Controls consist of inoculated medium lacking carbohydrate. […] All three plates include a positive control (glucose) and negative control (no carbohydrate). The OD600 data for each carbohydrate is corrected by subtracting the OD600 of the basal media (sMRS)+cysteine from the sample plate for each probiotic. Maximum OD is determined by inspection of the corrected growth data. OD is determined by subtracting the initial corrected OD (time point 0) from the maximum corrected OD. Samples are grown in biologically independent triplicates and the resulting growth kinetic data are expressed as the mean of these replicates. For the growth curve plots, OD600 vs. time is first plotted for the bacteria grown on medium lacking carbohydrate (sMRS). For all other carbohydrates, the OD600 data is corrected by subtracting the OD600 of sMRS.
# B. infantis ATCC 15697 = experiment: Bacterial growth assay (OD600); type: cell-based, Bifidobacterium infantis; conditions: 1% carbohydrate in sMRS+cysteine
# Protocol: as §2
# bifidobacteria strains = experiment: Bacterial growth assay (OD600), panel of 12 strains; type: cell-based, Bifidobacterium; conditions: 1% carbohydrate in sMRS+cysteine
# Protocol: as §2
# Caco-2 cells = experiment: Alkaline phosphatase activity per milligram of protein (cell differentiation), Caco-2; type: cell-based, human; conditions: Example 48: LNnT or 2′FL 20, 200, 2000 mg/L; 6′SL 40, 400, 4000 mg/mL; 72 hours
# Protocol: In a second experiment, Caco-2 cells, which model more mature epithelial cells of the small intestine, are incubated in a humidified atmosphere of 5% carbon dioxide at 37° C. in the presence of LNnT or 2′FL at concentrations of 0 mg/L (“0”), 20 mg/L (“20”), 200 mg/L (“200”), and 2000 mg/L (“2000”) or in the presence of 6′SL at concentrations of 0 mg/mL (“0”), 40 mg/mL (“40”), 400 mg/mL (“400”), and 4000 mg/mL (“4000”) for 72 hours. The culture medium utilized is Dulbecco's Modified Eagle Medium (Life Technologies, Foster City Calif.) supplemented with 10% fetal calf serum and 2 mM glutamine. The controls (“energy”) consist of 91.5 mg lactose and 64.2 mg N-acetyllactosamine/L for LNnT; 133 mg lactose and 67 mg fucose/L for 2′FL; and 195 mg lactose and 205 mg sialic acid/L for 6′SL. The impact of the LNnT, 2′FL, and 6′SL at various levels and the control on Caco-2 cell proliferation is measured using a conventional BrdU assay, which measures the number of cells that have recently synthesized DNA. […] Additionally, the impact of LNnT, 2′FL, and 6′SL at various levels and the controls on the alkaline phosphatase activity per milligram of protein for Caco-2 cells, which is an indication of cell differentiation, is measured.
# HT-29 cells [2] = experiment: Alkaline phosphatase activity per milligram of protein (cell differentiation), HT-29; type: cell-based, human; conditions: Example 48: LNnT or 2′FL 20, 200, 2000 mg/L; 6′SL 40, 400; 72 hours
# Protocol: as §1
# infant fecal bacteria = experiment: In vitro substrate fermentation model with infant feces (pH, SCFA, lactate); type: cell-based, human infant
# B. breve ATCC 15700 = experiment: Bacterial growth assay (OD600); type: cell-based, Bifidobacterium breve; conditions: 1% carbohydrate in sMRS+cysteine
# Protocol: Coy Laboratory Products, Grass Lake, Mich.). Subsequently, the cultures are passed twice on a semi-synthetic MRS medium ([…] which is supplemented with 1% (w/v) filter-sterilized glucose as the sole carbohydrate source. […] For bifidobacteria strains, the same procedure is followed except all media are supplemented with 0.5 g/l L-cysteine/HCl. […] After the 2nd pass in sMRS+glucose+cysteine, the cultures are washed once with 10 mL of sterile sMRS+cysteine (no carbohydrate), resuspended in 10 ml of sterile sMRS+cysteine (no carbohydrate) and then used as a 1% inoculum. The carbohydrates are sterilized with a 0.22 micron filter and used at a 1% final concentration. Cell growth is performed in 250 μL of sMRS+cysteine covered with 50 μL of mineral oil in a Bioscreen 100-well Honeycomb plate. […] The plate reader is operated in discontinuous mode, with absorbance readings performed in 30-minute intervals, and preceded by 30-second shaking intervals at maximum speed. Controls consist of inoculated medium lacking carbohydrate. […] Maximum OD is determined by inspection of the corrected growth data. OD is determined by subtracting the initial corrected OD (time point 0) from the maximum corrected OD. Samples are grown in biologically independent triplicates and the resulting growth kinetic data are expressed as the mean of these replicates. […]
structure (smiles),measurement,setting,value
"CC(=O)N[C@H]1C([C@H](O)[C@H](O)CO)O[C@@](OCC2O[C@@H](O[C@@H]3C(CO)OC(O)C(O)[C@H]3O)C(O)[C@@H](O)[C@H]2O)(C(=O)[O-])C[C@H]1O.[Na+] (stereo in doubt) [6′SL, α-(2-6′)-N-Acetylneuraminyl-lactose sodium salt]",bifidobacteria populations,Bifidobacterium spp.,may also be bifidogenic; also recorded: tended to generally increase bifidobacteria levels
same,HT-29 cell proliferation,HT-29 cells [1],capable of reducing cell proliferation at higher doses; also recorded: inhibits intestinal cell proliferation in immature epithelial cells
same,growth / ability to ferment (OD600),B. infantis M-63,able to ferment
same,growth / ability to ferment (OD600),B. infantis ATCC 15697,able to ferment
same,growth / ability to ferment (OD600),bifidobacteria strains,only B. infantis ATCC 15697 and B. infantis M-63 are able to ferment
same,alkaline phosphatase activity per milligram of protein (cell differentiation),Caco-2 cells,no apparent effect
same,alkaline phosphatase activity per milligram of protein (cell differentiation),HT-29 cells [2],no apparent effect
same,fermentation rate,infant fecal bacteria,"about 1,809 μg/g of dry matter/hour"
same,acetate production,infant fecal bacteria; 3 and 6 h,intermediate
same,"acetate production, formula fed versus breast fed infants",infant fecal bacteria; 12 h,greater
same,propionate production,infant fecal bacteria; 12 h of fermentation,large increase
same,total SCFA production,"infant fecal bacteria; 12 h of fermentation, sodium salt",greater (P<0.05); also recorded: substantial amounts of SCFA
same,total SCFA production,infant fecal bacteria; after 3 and 6 h of fermentation,lower (P<0.05) with 6′SL compared to GOS
same,"total SCFA production, formula fed versus breast fed infants",infant fecal bacteria; after 6 and 12 h of fermentation,greater (P=0.01) fermentation by formula fed infants
same,propionate production,infant fecal bacteria; overall,greater (P<0.0001) propionate production than all other substrates
same,fermentability by infant fecal bacteria,"infant fecal bacteria; overall, sodium salt",highly fermentable; also recorded: readily fermented
same,lactate accumulation,"infant fecal bacteria; up to 12 h, sodium salt",no lactate accumulation; also recorded: little lactate had accumulated
"CC(=O)N[C@H]1[C@H]([C@H](O)[C@H](O)CO)O[C@@](O[C@H]2[C@@H](O)[C@@H](CO)O[C@@H](O[C@H]3[C@H](O)[C@@H](O)C(O)O[C@@H]3CO)[C@@H]2O)(C(=O)O)C[C@@H]1O (stereo partly drawn) [3′SL, 3′-Sialyllactose]",growth / ability to ferment (OD600),B. infantis M-63,able to ferment
same,growth / ability to ferment (OD600),B. infantis ATCC 15697,able to ferment
same,growth / ability to ferment (OD600),bifidobacteria strains,only B. infantis ATCC 15697 and B. infantis M-63 are able to ferment
"C[C@H](O)[C@@H](O)[C@@H](O)[C@H](O)C=O [L-fucose, reference compound]",growth / ability to ferment (OD600),B. infantis M-63,not able to ferment
same,growth / ability to ferment (OD600),B. infantis ATCC 15697,not able to ferment
same,growth / ability to ferment (OD600),bifidobacteria strains,None of the bifidobacteria are able to ferment
"CC(=O)N[C@@H]1[C@@H](O)[C@H](O)[C@@H](CO)O[C@H]1O [NAG, reference compound]",growth / ability to ferment (OD600),bifidobacteria strains,Only B. breve ATCC 15700 is able to ferment
same,growth / ability to ferment (OD600),B. breve ATCC 15700,able to ferment
O=C(CO)[C@@H](O)[C@H](O)[C@H](O)CO [fructose],growth / ability to ferment (OD600),bifidobacteria strains,majority of bifidobacteria is able to ferment
OC[C@H]1O[C@@H](O[C@H]2[C@H](O)[C@@H](O)C(O)O[C@@H]2CO)[C@H](O)[C@@H](O)[C@H]1O (stereo partly drawn) [lactose],growth / ability to ferment (OD600),bifidobacteria strains,"the bifidobacteria, which is not able to ferment galactose, also has reduced growth on lactose"
